Data published in the SangsterLogP compilation.

`N#Cc1ccc(N2CCN(CCNC(=O)c3ccc(F)cc3)CC2)cc1` gave a logP of 3.02.
`N#Cc1cccnc1N1CCN(CCNC(=O)c2ccc(F)cc2)CC1` showed a logP of 2.33.
Compound `COc1cccc(C(=O)NCCN2CCN(c3ncccc3C#N)CC2)c1` has a logP of 2.47.
Work on `Cc1ccc(N2CCN(CCNC(=O)c3ccc(F)cc3)CC2)cc1` yielded a logP of 2.95.
With `COc1cccc(C(=O)NCCN2CCN(c3ccc(C)cc3)CC2)c1` the logP was 2.83.
Compound `O=C(NCCN1CCN(c2ccc(Cl)cc2)CC1)c1ccc(F)cc1` has a logP of 3.7.
With `O=C(NCCN1CCN(c2ccc(Cl)cn2)CC1)c1ccc(F)cc1` the logP was 3.36.
`COc1cccc(C(=O)NCCN2CCN(c3ccc(Cl)cn3)CC2)c1` showed a logP of 3.24.
For `COc1cccc(C(=O)NCCN2CCN(c3ccc(Cl)cc3)CC2)c1`, the logP was 3.31.
